System: ABC superfamily genes in MCF-7/PAX
Assay: Expression of genes encoding ABC transporters, qPCR
Assay type: cell-based, human
Procedure: Based on the fact that compounds K3, K4, K7 sensitized drug-resistant cell lines (HOC/ADR, MCF-7/PAX) and modulated ATPase activity of one from the ABC proteins (P-gp), we verified the potential of these compounds to affect ABC superfamily gene expression. The ovarian and breast cancer cell lines (parental cells and resistant sub-line) were analysed for the expression profile of genes encoding the ABC proteins in the previous works[18]–[20]. […] After 48 h, the effect of compounds alone or in the combination with cytostatics was observed (Supplementary Tables 1, Table 2).
To determine the impact of selected compounds on the expression of genes encoding ABC transporter, HOC/ADR and MCF-7/PAX cells were seeded for 24 h into 5 cm Petri dishes with DMEM medium at the cell density 1 × 10^5 cells/mL. Afterwards, the cells were washed 1× with PBS and new fresh DMEM supplemented with K3, K4, and K7 (in concentration corresponding to their IC10 value) alone or combined with cytostatics (Adriamycin or paclitaxel in concentration corresponding to their IC25 value) was added. In the experiment, positive and negative control was also included (positive—untreated cells, negative—cells treated only with cytostatics). After 48 h exposure, the cells were washed once with PBS and released from the surface by using the above-mentioned trypsin–EDTA procedure. The enzyme reaction was stopped by medium addition and the cells were centrifuged (3200×g; 10 min, 4 °C). The supernatants were removed and before the next centrifugation, the pellets were resuspended in 1.5 mL of cooled PBS (5400×g; 10 min, 4 °C). After the second washing step, the cells were centrifuged another time (10,000×g; 3 min, 4 °C). Subsequently, 1 mL of Trizol (Invitrogen) was added to the pellets and the compounds were stored − 80 °C.
The RNA concentration of selenoester treated samples was determined using QuantiT RiboGreen RNA Assay Kit and Infinite M200 plate reader (Tecan, Männedor, Switzerland). The cDNA was synthesized from 0.5 µg of total RNA by RevertAid First Strand Synthesis cDNA Kit (MBI Fermentas, Vilnius, Lithuania). To determine the quality of cDNA, the ubiquitin C gene fragment was amplified. The experiment was performed in 384-well block by using ViiA7 Real-Time PCR System (Life Technologies, Camarillo, California, United States). A master mix contained 0.25 µL of 20× TaqMan Gene Expression Assay, 1 µL of 5× HotFIREPol Probe qPCR Mix Plus, 1.75 µL of RNase free water and 2 µL of 8× diluted cDNA. The final reaction volume was 5 µL. The PCR parameters were as follows: initial hold (50 °C for 2 min), denaturation (95 °C for 10 min), followed by 45 cycles (denaturation at 95 °C for 15 s, annealing at 60 °C for 1 min). After each cycle, the fluorescent signal was determined. For each compound, duplicates were analysed and those with a standard deviation higher than 0.5 Ct were re-analysed. A quantitate real-time PCR was followed by MIQE guidelines. To compare the relative transcript levels of genes, the software REST 2009 (Qiagen, Hilden, Germany) was used.
Table 2. Effect of selenoesters either on the expression of the ABC gene superfamily in paclitaxel-resistant breast cancer cell line (MCF-7/PAX).
Gene expression of ABC transporters were estimated using comercial predesigned Taqman Gene Expression Assays (Life technologies). TaqMan Gene Expression Assays are based on 5´ nuclease chemistry, and each assay contains the primer and probe set for target of interest. Taqman assays IDs and GenBank Accession numbers of reference sequencies identifying their location and amplicon lengths are included in the Supplementary Table I. * Relative transcript levels (P-value ) in treated and non-treated cancer cell lines were compared using REST 2009 software.

In the case of `CC(=O)C[Se]C(=O)c1ccc(C(C)(C)C)cc1` [K7], the “number of ABC genes with altered expression” value is reported as 32, the “ABCA2 Expression Difference” value (IC10 alone, 48 h) is reported as 0.159 and the “ABCA2 Treated vs. Untr.” value (IC10 alone, 48 h) is reported as “DOWN”. For the same molecule, the “ABCA3 Expression Difference” value (IC10 alone, 48 h) was 0.376, the “ABCA3 Treated vs. Untr.” value (IC10 alone, 48 h) was “DOWN” and the “ABCA4 Expression Difference” value (IC10 alone, 48 h) was 20.68. The “ABCA5 Expression Difference” value (IC10 alone, 48 h) was 0.600, the “ABCA5 Treated vs. Untr.” value (IC10 alone, 48 h) was “DOWN” and the “ABCA7 Expression Difference” value (IC10 alone, 48 h) was 0.384. The “ABCA7 Treated vs. Untr.” value (IC10 alone, 48 h) was “DOWN”, the “ABCA12 Expression Difference” value (IC10 alone, 48 h) was 0.745 and the “ABCA12 Treated vs. Untr.” value (IC10 alone, 48 h) was “DOWN”. The “ABCB1 Expression Difference” value (IC10 alone, 48 h) was 0.361, the “ABCB1 Treated vs. Untr.” value (IC10 alone, 48 h) was “DOWN” and the “ABCB2 Expression Difference” value (IC10 alone, 48 h) was 0.274. For the same molecule, the “ABCB2 Treated vs. Untr.” value (IC10 alone, 48 h) was “DOWN”, the “ABCB3 Expression Difference” value (IC10 alone, 48 h) was 0.164 and the “ABCB3 Treated vs. Untr.” value (IC10 alone, 48 h) was “DOWN”. For the same molecule, the “ABCB6 Expression Difference” value (IC10 alone, 48 h) was 0.305, the “ABCB6 Treated vs. Untr.” value (IC10 alone, 48 h) was “DOWN” and the “ABCB7 Expression Difference” value (IC10 alone, 48 h) was 0.131. For the same molecule, the “ABCB7 Treated vs. Untr.” value (IC10 alone, 48 h) was “DOWN”, the “ABCB8 Expression Difference” value (IC10 alone, 48 h) was 0.407 and the “ABCB8 Treated vs. Untr.” value (IC10 alone, 48 h) was “DOWN”. For the same molecule, the “ABCB9 Expression Difference” value (IC10 alone, 48 h) was 0.340, the “ABCB9 Treated vs. Untr.” value (IC10 alone, 48 h) was “DOWN” and the “ABCB10 Expression Difference” value (IC10 alone, 48 h) was 0.822. For the same molecule, the “ABCB10 Treated vs. Untr.” value (IC10 alone, 48 h) was “DOWN”, the “ABCC1 Expression Difference” value (IC10 alone, 48 h) was 0.238 and the “ABCC1 Treated vs. Untr.” value (IC10 alone, 48 h) was “DOWN”. For the same molecule, the “ABCC2 Expression Difference” value (IC10 alone, 48 h) was 0.061, the “ABCC2 Treated vs. Untr.” value (IC10 alone, 48 h) was “DOWN” and the “ABCC3 Expression Difference” value (IC10 alone, 48 h) was 15.69. The “ABCC4 Expression Difference” value (IC10 alone, 48 h) was 0.213, the “ABCC4 Treated vs. Untr.” value (IC10 alone, 48 h) was “DOWN” and the “ABCC5 Expression Difference” value (IC10 alone, 48 h) was 0.933. The “ABCC5 Treated vs. Untr.” value (IC10 alone, 48 h) was “DOWN”, the “ABCC6 Expression Difference” value (IC10 alone, 48 h) was 0.424 and the “ABCC6 Treated vs. Untr.” value (IC10 alone, 48 h) was “DOWN”. The “ABCC8 Expression Difference” value (IC10 alone, 48 h) was 0.651, the “ABCC8 Treated vs. Untr.” value (IC10 alone, 48 h) was “DOWN” and the “ABCC10 Expression Difference” value (IC10 alone, 48 h) was 0.170. The “ABCC10 Treated vs. Untr.” value (IC10 alone, 48 h) was “DOWN”, the “ABCD1 Expression Difference” value (IC10 alone, 48 h) was 0.104 and the “ABCD1 Treated vs. Untr.” value (IC10 alone, 48 h) was “DOWN”. The “ABCD3 Expression Difference” value (IC10 alone, 48 h) was 0.247, the “ABCD3 Treated vs. Untr.” value (IC10 alone, 48 h) was “DOWN” and the “ABCD4 Expression Difference” value (IC10 alone, 48 h) was 0.872. The “ABCD4 Treated vs. Untr.” value (IC10 alone, 48 h) was “DOWN”, the “ABCE1 Expression Difference” value (IC10 alone, 48 h) was 0.505 and the “ABCE1 Treated vs. Untr.” value (IC10 alone, 48 h) was “DOWN”. For the same molecule, the “ABCF1 Expression Difference” value (IC10 alone, 48 h) was 2.263, the “ABCF2 Expression Difference” value (IC10 alone, 48 h) was 0.601 and the “ABCF2 Treated vs. Untr.” value (IC10 alone, 48 h) was “DOWN”. The “ABCF3 Expression Difference” value (IC10 alone, 48 h) was 0.484, the “ABCF3 Treated vs. Untr.” value (IC10 alone, 48 h) was “DOWN” and the “ABCG1 Expression Difference” value (IC10 alone, 48 h) was 0.307. For the same molecule, the “ABCG1 Treated vs. Untr.” value (IC10 alone, 48 h) was “DOWN”, the “ABCG2 Expression Difference” value (IC10 alone, 48 h) was 0.207 and the “ABCG2 Treated vs. Untr.” value (IC10 alone, 48 h) was “DOWN”. For the same molecule, the “ABCG4 Expression Difference” value (IC10 alone, 48 h) was 0.188, the “ABCG4 Treated vs. Untr.” value (IC10 alone, 48 h) was “DOWN” and the “decrease of expression of ABCB1 (P-gp) encoding gene” value (IC10 alone, 48 h) was 64%. The “downregulation of expression of ABCC1 (MRP1)” value (IC10 alone, 48 h) was 76% and the “downregulation of expression of ABCG2” value (IC10 alone, 48 h) was 80%.
